Where two headings read alike, the source gives them in different places.
Tests used:
[1] = system: carbachol- or histamine-induced bronchoconstriction; assay: Bronchodilator Test Method I, anesthetized dog, intravenous activity; assay type: in vivo; conditions: Canis lupus familiaris, read-out: Bronchodilatation; for inhibition in vivo at 0.008 mg/kg: 8 mcg/kg i.v.; for inhibition in vivo at 0.032 mg/kg: 32 mcg/kg i.v.; for inhibition in vivo at 0.128 mg/kg: 128 mcg/kg i.v.; for inhibition in vivo at 0.0012 mg/kg: 1.2 mcg/kg i.v.; for inhibition in vivo at 0.006 mg/kg: 6.0 mcg/kg i.v.
Procedure: Bronchodilator activity was tested in anesthetized dogs (Test Method I) and in vitro on the perfused guinea pig lung (Test Method II), using the following pharmacological test procedures
(§1) Male and female dogs weighing 9-18 kg. each were anesthetized with pentobarbital sodium (30 mg./kg. i.v.). Each animal, with thorax opened at the midsternum, was maintained under artificial ventilation using a constant volume pump (250 ml./stroke; 10 to 12 strokes per minute) attached to the tracheal cannula. The flow of air was controlled by a glass or plastic valve which closed and opened respectively on inflow and outflow of the air to and from the tracheal cannula. Bronchoconstriction and/or bronchodilatation were measured from changes in the basal airway pressure reflected by a transducer attached to the sidearm of the cannula relayed to a polygraph.
(§2) Control bronchoconstrictions were induced by intravenous injections of carbachol (choline chloride carbamate) in doses ranging from 4 to 6 micrograms per kilogram or histamine diphosphate in doses ranging from 35 to 45 micrograms per kilogram.
Solutions of the test compounds were prepared in distilled water or in saline (for infusion). […] These solutions were then tested for bronchodilator activity in three ways, viz. (1) by mixing a graded dose of test compound with the constant does of carbachol or histamine in a syringe and injecting the mixture into the femoral vein of the dog, (2) by producing the bronchoconstriction first and injecting the test compound at the time of maximum constriction, and (3) by injecting the test compound first followed by carbachol or histamine in 1-10 minutes. Injections were repeated at 20-30 minutes. Bronchodilator values were obtained by measuring the areas under the response polygraph tracings (the first 5 munite period) of carbachol or histamine controls and of the experimentals using a planimeter. Decrease in the area thus measured was expressed as a percent bronchodilatation in reference to the area of control carbachol or histamine constriction. The mean bronchodilatations (the reductions in constrictions) were plotted against the doses administered and the mean effective dose (ED50) was estimated in micrograms/kilogram from the does-response curves. Blood pressure recording was taken from the femoral artery using an arterial transducer relayed to a polygraph.

[2] = system: carbachol- or histamine-induced bronchoconstriction; assay: Bronchodilator Test Method I, anesthetized dog, intraduodenal activity; assay type: in vivo; conditions: Canis lupus familiaris, read-out: Bronchodilation; for inhibition in vivo at 0.032 mg/kg: 32 mcg/kg (salt) intraduodenal; for inhibition in vivo at 0.128 mg/kg: 128 mcg/kg (salt) intraduodenal; for inhibition in vivo at 0.45 mg/kg: 450 mcg/kg (salt) intraduodenal; for inhibition in vivo at 0.038 mg/kg: 38 mcg/kg (salt) intraduodenal
Procedure: as §1
as §2, with “kilogram. In the majority of test animals, the above doses of constrictor agents produced a 100-200 percent increase in the normal airway pressure or amplitude.” for “kilogram.”
Injections were repeated at 20-30 minutes.
In intraduodenal studies, in the dog prepared for bronchodilation measurements, the duodenal segment of the small intestine was made easily accessible through a small mid-line incision in the abdomen. The test solution was injected into the duodenum using a fine needle. Commencing 5 minutes after medication, the degree and duration of bronchodilation were tested by injecting a control dose of carbachol or histamine at intervals of 30-60 minutes until the recovery or near-recovery was apparent. In some dogs showing an early recovery, a reference drug was also tested in the same dog 1.5-2 hours after the first medicine.

[3] = system: guinea pig bronchioles constricted by carbachol; assay: Bronchodilator Test Method II, in vitro perfused guinea pig lung
Procedure: In this method bronchodilator activity in vitro was determined by testing the effect of graded doses of the test compounds on guinea pig bronchioles constricted by carbachol, using the technique reported by Sollman and von Oettingen, Proc. Soc, Exp. Biol. Med., 25,692 (1928) as modified by Tainter, Pedden, and James, J. Pharm. Exp. Ther., 51, 371 (1934) and by Luduena, von Euler, Tullar, and Lands, Arch. intern. Pharmacol., III, 392 (1957).

CC(=O)OCc1cc(C(O)CNC(C)(C)C)ccc1OC(=O)C12CC3CC(CC(C3)C1)C2 (stereo not drawn) [Example 152, 3-(acetoxymethyl)-4-(1-adamantanecarbonyloxy)-alpha-(tert-butylaminomethyl)benzyl alcohol methanesulfonate]
inhibition in vivo at 0.008 mg/kg ([1]; 5 min, 5 min): 44% | inhibition in vivo at 0.032 mg/kg ([1]; 5 min, 5 min): 77% | inhibition in vivo at 0.128 mg/kg ([1]; 5 min, 5 min): 97% | inhibition in vivo at 0.008 mg/kg ([1]; 0.5 h, 30 min): 39% | inhibition in vivo at 0.032 mg/kg ([1]; 0.5 h, 30 min): 78% | inhibition in vivo at 0.128 mg/kg ([1]; 0.5 h, 30 min): 92% | inhibition in vivo at 0.008 mg/kg ([1]; 1 h, 60 min): 50% | inhibition in vivo at 0.032 mg/kg ([1]; 1 h, 60 min): 75% | inhibition in vivo at 0.128 mg/kg ([1]; 1 h, 60 min): 93% | inhibition in vivo at 0.008 mg/kg ([1]; 2 h, 120 min): 33% | inhibition in vivo at 0.032 mg/kg ([1]; 2 h, 120 min): 70% | inhibition in vivo at 0.128 mg/kg ([1]; 2 h, 120 min): 87% | inhibition in vivo at 0.008 mg/kg ([1]; 3 h, 180 min): 39% | inhibition in vivo at 0.032 mg/kg ([1]; 3 h, 180 min): 63% | inhibition in vivo at 0.128 mg/kg ([1]; 3 h, 180 min): 89% | inhibition in vivo at 0.008 mg/kg ([1]; 4 h, 240 min): 39% | inhibition in vivo at 0.032 mg/kg ([1]; 4 h, 240 min): 52% | inhibition in vivo at 0.128 mg/kg ([1]; 4 h, 240 min): 88% | inhibition in vivo at 0.008 mg/kg ([1]; 4.5 h, 270 min): 0% | inhibition in vivo at 0.032 mg/kg ([1]; 4.5 h, 270 min): 45% | inhibition in vivo at 0.128 mg/kg ([1]; 4.5 h, 270 min): 82% | inhibition in vivo at 0.032 mg/kg ([2]; 5 min, 5 min): 6% | inhibition in vivo at 0.128 mg/kg ([2]; 5 min, 5 min): 6% | inhibition in vivo at 0.032 mg/kg ([2]; 0.5 h, 30 min): 6% | inhibition in vivo at 0.128 mg/kg ([2]; 0.5 h, 30 min): 43% | inhibition in vivo at 0.032 mg/kg ([2]; 1 h, 60 min): 17% | inhibition in vivo at 0.128 mg/kg ([2]; 1 h, 60 min): 59% | inhibition in vivo at 0.032 mg/kg ([2]; 2 h, 120 min): 48% | inhibition in vivo at 0.128 mg/kg ([2]; 2 h, 120 min): 51% | inhibition in vivo at 0.032 mg/kg ([2]; 3 h, 180 min): 45% | inhibition in vivo at 0.128 mg/kg ([2]; 3 h, 180 min): 65% | inhibition in vivo at 0.032 mg/kg ([2]; 4 h, 240 min): 45% | inhibition in vivo at 0.128 mg/kg ([2]; 4 h, 240 min): 59% | inhibition in vivo at 0.032 mg/kg ([2]; 5 h, 300 min): 21% | inhibition in vivo at 0.128 mg/kg ([2]; 5 h, 300 min): 54%

Cc1ccc(C(=O)Oc2ccc(C(O)CN)cc2OC(=O)c2ccc(C)cc2)cc1 (stereo not drawn) [Example 127, 3,4-bis(p-toluyloxy)-alpha-(aminomethyl)benzyl alcohol methanesulfonate]
inhibition in vivo at 0.45 mg/kg ([2]; 5 min, 5 min): 16% | inhibition in vivo at 0.45 mg/kg ([2]; 10 min, 10 min): 16% | inhibition in vivo at 0.45 mg/kg ([2]; 1 h, 60 min): 0% | inhibition in vivo at 0.45 mg/kg ([2]; […], after 90 min): 0%

CC(=O)Oc1ccc(C(O)CNC(C)(C)C)cc1OC(=O)c1ccc(C)cc1 (stereo not drawn) [Example 146, 3-(p-toluyloxy)-4-acetoxy-alpha-(tert-butylaminomethyl)benzyl alcohol methanesulfonate]
inhibition in vivo at 0.0012 mg/kg ([1]; 5 min, 5 min): 31% | inhibition in vivo at 0.006 mg/kg ([1]; 5 min, 5 min): 66% | inhibition in vivo at 0.0012 mg/kg ([1]; 0.5 h, 30 min): 38% | inhibition in vivo at 0.006 mg/kg ([1]; 0.5 h, 30 min): 57% | inhibition in vivo at 0.0012 mg/kg ([1]; 1 h, 60 min): 44% | inhibition in vivo at 0.006 mg/kg ([1]; 1 h, 60 min): 63% | inhibition in vivo at 0.0012 mg/kg ([1]; 3 h, 180 min): 20% | inhibition in vivo at 0.0012 mg/kg ([1]; 4 h, 240 min): 20% | inhibition in vivo at 0.038 mg/kg ([2]; 5 min, 5 min): 60% | inhibition in vivo at 0.038 mg/kg ([2]; 0.5 h, 30 min): 39% | inhibition in vivo at 0.038 mg/kg ([2]; 1 h, 60 min): 39% | inhibition in vivo at 0.038 mg/kg ([2]; 2 h, 120 min): 26% | inhibition in vivo at 0.038 mg/kg ([2]; 3 h, 180 min): 33% | inhibition in vivo at 0.038 mg/kg ([2]; 4 h, 240 min): 24% | inhibition in vivo at 0.038 mg/kg ([2]; 5 h, 300 min): 13%

CC(C)(C)NCC(O)c1ccc(OC(=O)C(C)(C)C)c(O)c1 (stereo not drawn) [Example 59, 3-hydroxy-4-(pivalyloxy)-alpha-(tert-butylaminomethyl)benzyl alcohol methanesulfonate]
ED50 ([3]; carbachol (Doryl) 1:5 million): 1.2 µg (base) | Duration, Mean ([3]; dose 3.2 mcg (base)): 25 ± 5.6 min

Cc1ccc(C(=O)Oc2ccc(C(O)CNC(C)C)cc2OC(=O)c2ccc(C)cc2)cc1 (stereo not drawn) [Example 89, 3,4-bis(p-toluyloxy)-alpha-(isopropylaminomethyl)benzyl alcohol]
ED50 ([3]; carbachol (Doryl) 1:5 million): 6.4 µg (base) | Duration, Mean ([3]; dose 15 mcg (base)): 125 ± 31 min

3,4-bis(p-toluyloxy)-alpha-[1-(tert-butylaminomethyl)propyl]benzyl alcohol hydrochloride [Example 144]
Duration, Mean ([3]; dose 500 mcg (base)): 83 ± 26.8 min

COc1ccc(C(=O)Oc2ccc(C(O)CNC(C)(C)C)cc2OC(=O)c2ccccc2)cc1 (stereo not drawn) [Example 143, 3-benzoyloxy-4-(p-anisoyloxy)-alpha-(tert-butylaminomethyl)benzyl alcohol]
ED50 ([3]; Doryl conc. 1:10 million): 1.53 µg (base) | Duration, Mean ([3]; dose 2 mcg (base), Doryl conc. 1:10 million): 29.2 ± 10.2 min

CC(C)C(=O)Oc1ccc(C(O)CNC(C)(C)C)cc1OC(=O)C(C)C.Cl (stereo not drawn) [Example 2, 3,4-bis(isobutyryloxy)-alpha-(tert-butylaminomethyl)benzyl alcohol hydrochloride]
ED50 ([3]; carbachol (Doryl) 1:5 million): 0.28 µg (base) | Duration, Mean ([3]; dose 0.5 mcg (base)): 9 ± 1.1 min

From patent USRE30241E, “Esters of 3-(hydroxy or hydroxymethyl)-4-hydroxyphenyl aminomethyl ketones” (Sterling Drug Inc., priority 1970, dated 1980)
